This note sets out measurements from US9302967B2, “Substituted cathechols as inhibitors of IL-4 and IL-5 for the treatment of bronchial asthma” (Council of Scientific & Industrial Research, priority 2011, dated 2016).

This assay has as its system IL-4. Put plainly: PHA-stimulated human PBMC, IL-4 in supernatant by Cytometric Bead Array. The assay is classed as cell-based. The settings on record: PHA 10 μg/ml, read-out: IC50 inhibitory activity, stimulation-induced IL-4. The protocol:
Normal human peripheral blood mononuclear cells (PBMC) were stimulated with phytohemagglutinin (PHA) 10 μg/ml in the presence and absence of varying concentrations of compounds of formula I and II. Culture supernatants were harvested and IIL-4 and IL-5 cytokines were quantitated by Cytometric Bead Array (CBA™) kit (Becton Dickinson, USA) following manufacturers instructions using a Flow Cytometer (BD LSR, Becton Dickinson) and CBA™ analysis software (Becton Dickinson).

The term IC50 denotes the midpoint of a concentration-inhibition curve. As for `C=CCc1ccc(O)c(O)c1` [Compound 1, 4-allyl-benzene-1,2-diol], the IC50 was determined as 5 µM.
